Reference: patent US5288624A, “Cercosporal fungicide compositions and methods of use” (priority 1987, dated 1994)
Converted amounts (≈) assume the structure as drawn.

Legend:
[1] = system: Botrytis; experiment: Combination with herbicides, Botrytis agar plate test; type: cell-based, Botrytis cinerea; settings: herbicide applied singly
[2] = system: Staphylococcus aureus; settings: Matsueda et al.; cited from earlier work
[3] = system: Candida japonica; settings: Matsueda et al.; cited from earlier work
[4] = system: Bacillus subtilis; settings: Matsueda et al.; cited from earlier work
[5] = system: certain microorganisms; settings: Matsueda et al. 1980; cited from earlier work
[6] = system: E. coli; settings: Matsueda et al.; cited from earlier work
[7] = system: Pseudomonas aeruginosa; settings: Matsueda et al.; cited from earlier work
[8] = system: Trichophyton rubrum; experiment: Effect of the fungicide on dermatophytes (agar incorporation); type: cell-based; settings: 120 h, pH 7.1, 25°, 5 days, read-out: Minimum Inhibitory Concentration, MIC
Method: (§1) These were recent clinical isolates and were cultivated at 25° C. on agar containing the following ingredients in grams per liter:
(§2) Mycelia from the 3 fungi were disintegrated with sterile glass beads in sterile water and 1 drop applied to the center petri dishes containing the same agar as above but to which was added Phaeoramularia fungicide. The fungicide was added at a concentration of from 0.5 μg/ml to 5 μg/ml of the eluate described under "Extraction of the active principle." Griseofulvin was used in comparison. Controls were prepared with the same agar but devoid of fungicide. Five (5) replicates were made for each test.

[9] = system: Microsporum canis; experiment: as above; type: cell-based; settings: 120 h, pH 7.1, 25°, 5 days, read-out: Minimum Inhibitory Concentration, MIC
Method: as §1, §2

[10] = system: T. mentagrophytes; experiment: as above; type: cell-based; settings: Trichophyton mentagrophytes, 120 h, pH 7.1, 25°, 5 days, read-out: Minimum Inhibitory Concentration, MIC
Method: as §1, §2

CCNc1nc(Cl)nc(NC(C)C)n1 [Atrazine]
effect of herbicide on Botrytis [1]: no effect

COc1nc(C)nc(NC(=O)NS(=O)(=O)c2ccccc2Cl)n1 [Chlorsulfuron]
effect of herbicide on Botrytis [1]: no effect

CCNc1nc(Cl)nc(NCC)n1 [Simazine]
effect of herbicide on Botrytis [1]: no effect

COc1c(CC(C)O)c2c3c(CC(C)O)c(OC)c(=O)c4c(O)cc5c(c6c(cc(O)c(c1=O)c62)OCO5)c43 (stereo not drawn) [cercosporin]
inhibition of growth [2]: inhibit the growth
inhibition of growth [3]: inhibit the growth
inhibition of growth [4]: inhibit the growth
inhibitory effect on certain microorganisms [5]: inhibitory effect
inhibition of growth [6]: inhibit the growth
inhibition of growth [7]: inhibit the growth

COC1=CC(=O)C[C@@H](C)[C@]12Oc1c(Cl)c(OC)cc(OC)c1C2=O [griseofulvin]
MIC [8]: 1.5 µg/mL (≈ 4.25 µM)
MIC [9]: 3 µg/mL (≈ 8.5 µM)
MIC [10]: 10 µg/mL (≈ 28.3 µM)
